Like-named read-outs stand apart in the source and are kept apart here.
Tests used:
human 5-HT2C receptor = target: T1, human 5-HT2C receptor (Homo sapiens, UniProt P28335); experiment: Evaluation of 5-HT2C receptor agonist activity (intracellular calcium increase, FLIPR, CHO cells stably expressing the receptor); type: cell-based; details: for Emax: read-out: 5-HT2C agonist activity Emax
T1 construct: expressed in transfected cells
T1 sequence (P28335 33-458): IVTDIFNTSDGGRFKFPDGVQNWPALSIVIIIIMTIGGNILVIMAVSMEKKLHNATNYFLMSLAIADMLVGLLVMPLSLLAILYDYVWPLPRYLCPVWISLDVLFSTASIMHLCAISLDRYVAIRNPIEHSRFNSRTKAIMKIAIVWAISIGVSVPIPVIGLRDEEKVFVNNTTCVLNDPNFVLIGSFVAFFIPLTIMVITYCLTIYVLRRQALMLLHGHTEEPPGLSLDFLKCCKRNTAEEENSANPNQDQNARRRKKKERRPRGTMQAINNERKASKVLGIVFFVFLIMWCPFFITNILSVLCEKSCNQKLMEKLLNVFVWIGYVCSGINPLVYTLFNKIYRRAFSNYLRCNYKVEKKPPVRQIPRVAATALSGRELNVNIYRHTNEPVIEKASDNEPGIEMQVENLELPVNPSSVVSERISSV
Procedure: The agonist activity of the compound of the formula (I) on the 5-HT2C receptor was confirmed by the method shown below.
The human 5-HT2C receptor agonist activity was evaluated by measuring the increase of the ligand-dependent intracellular calcium concentration. CHO cells which stably expressing a human 5-HT2C receptor were used. The receptor-expressing cells were prepared by transfecting the genes of the human 5-HT2C receptor (Accession numbers: AF498983 (5-HT2C)) into CHO cells (dihydrofolic acid-deficient strain, DS Pharma Biomedical Co., Ltd.)) using a pEF-BOS vector (Nucleic Acids Research, vol. 18, No. 17). After transcription, the 5-HT2C is known to be subjected to RNA editing to cause differences in three kinds of amino acids, resulting in fourteen receptor isoforms. Among them, cells stably expressing an INI type of 5-HT2C receptor which had not been subjected to editing were used. Cells used for evaluation were cultured in a 10% fetal bovine serum (FBS)-containing medium (trade name: α-MEM, Invitrogen) at 37° C. and 5% carbon dioxide. On the day before the evaluation, the cells were suspended in a serum-free medium (trade name: CD-CHO, Invitrogen) containing 8 mM L-glutamine (trade name: L-glutamine 200 mM, Invitrogen, added to the medium at a final concentration of 8 mM) and dispensed into a 96-well poly-D-lysine-coated plate (trade name: Biocoat PDL96W Black/Clear, Japan Becton, Dickinson and Company)) at 4×10^4 cells/well and cultured at 37° C. and 5% carbon dioxide overnight. A solution including a washing solution (mixture of Hank's Balanced Salt Solution (HBSS)-sodium hydroxide (NaOH), 20 mM 2-[4-(2-hydroxyethyl)-1-piperazinyl]ethanesulfonic acid (HEPES)-sodium hydroxide (NaOH), 2.5 mM probenecid, and 0.1% bovine serum albumin (BSA)), and a 4 μM fluorescent reagent (trade name: Fluo4-AM, Dojindo Co., Ltd.) was used as a loading buffer and the medium of the 96-well plate which had been cultured overnight was replaced with a loading buffer. After leaving to stand (with light-shielding) at room temperature for 3 hours, the cells were washed with a plate washer (trade name: ELx405, BioTek Instruments, Inc.) in which a washing solution had been set up. The plates of the washed cells were set up in a system for measuring a calcium (Ca) concentration in a cell (trade name: FLIPR, Molecular Devices, Inc.). In this device, a test compound that had been dissolved in dimethyl sulfoxide and diluted in the washing solution at a predetermined concentration was added and set up to measure a change in the Ca concentrations in a cell. The difference between a maximum value and a minimum value in the change of the intracellular Ca concentration was determined and kept as measurement data.
Taking the maximum reaction of the 5-HT (agonist action with addition of 5-HT 10 μM) as 100% and the reaction of a solvent alone as 0%, the efficacy (Emax (%)) and potency (EC50 (nM)) of the present invention compound to the maximum reaction of the 5-HT were calculated with a logistic regression method.

[1] = tested on: Hartley female guinea pigs; experiment: Measurement of external urethral sphincter electromyography; type: in vivo, guinea pig; details: Cavia porcellus; intravenous administration at 3 mg/kg; urethane-anesthetized guinea pigs; activity after solvent taken as 100%; read-out: external urethral sphincter electromyography activity
Source text: The activating action of the compound of the formula (I) on the urethral sphincter electromyography was confirmed with the method shown below.
Hartley female guinea pigs with a body weight of 250 to 350 g were anesthetized with urethane (Sigma). The guinea pigs were fixed in a supine position and catheters (PE-50; Clay Adams) for administration of test compounds were inserted into the jugular vein. Further, a catheters (PE-160; Clay Adams), for an infusion of physiological saline into bladder and measurement of the intravesical pressure, were inserted through an incision into the dome of the bladder. Further, in order to measure the external urethral sphincter electromyography, two electrodes were inserted into both the left and right sides of the urethral opening to the urethral sphincter. The electrodes for measuring base voltages were placed under the skin of the hind part. The bladder catheter was branched over a three-way stopcock, and one was connected with a 50 mL syringe (Terumo) fixed to an infusion pump (Terumo). The other was connected to a pressure transducer (DX-100; Nihon Kohden Corporation) to transfer the signal of the transducer through an amplifier (AP-630G; Nihon Kohden Corporation) and a data acquisition system (PowerLab; AD Instruments) to a computer and record on a hard disk. The electrodes for electromyography measurement were connected to a control unit (JB-101J; Nihon Kohden Corporation) to transfer the signal through an amplifier (AP-651J; Nihon Kohden Corporation) and a data acquisition system (PowerLab; AD Instruments) to a computer and record on a hard disk. Further, the data were analyzed on the computer using a software (Chart; AD Instruments). […] The electromyography activity was analyzed by taking the lowest potential amplitude as a standard during the stabilization period and using the firing frequency over the standard amplitude as an indicator. At internals between the respective urinations (urine filling phase), the activity of the urethral sphincter electromyography was analyzed and its average value was calculated. After the stabilization period, the solvent and the test compound were administered at an increased dose at an interval of 40 minutes through the catheter placed into the jugular vein. The urethral sphincter electromyography activity after the administration of the solvent was taken as 100% and the urethral sphincter electromyography activity after the administration of the test compound was denoted as a percentage (%) of the electromyography activity after the administration of the solvent.

[2] = CHO cells stably expressing INI type human 5-HT2C receptor, intracellular Ca increase, logistic regression, read-out: 5-HT2C agonist activity EC50
[3] = maximum reaction of 5-HT (10 μM) taken as 100%, solvent alone as 0%, CHO cells expressing INI type human 5-HT2C receptor

| Emax (human 5-HT2C receptor; [3]) | SMILES | EC50 (human 5-HT2C receptor; [2]) | Emax (human 5-HT2C receptor; CHO) | melting point | EC50 (human 5-HT2C receptor) | response vs control in vivo at 3 mg/kg [1] |
| --- | --- | --- | --- | --- | --- | --- |
|  | CC(C)C(=O)N1CCCc2cc3c(c(Cl)c21)CCNCC3.Cl [Example 21] | 0.81 nM | 101% | 245 to 249 °C |  |  |
| 112% | c1c2c(cc3c1OCCN3CC1CC1)CCNCC2 [Example 56] | 3.2 nM |  | 179 to 182 °C |  |  |
|  | CC(C)OCCN1CCOc2cc3c(cc21)CCNCC3 [Example 76] | 1.9 nM | 116% |  |  |  |
|  | CCN1CCCc2cc3c(c(Cl)c21)CCNCC3.Cl [Example 16] |  | 109% | 221 to 223 °C | 1.5 nM |  |
|  | Clc1c2c(cc3c1N(CC1CCC1)CCC3)CCNCC2 [Example 42] |  | 97% | 141 to 143 °C | 1.9 nM |  |
|  | c1ccc(OCCN2CCOc3cc4c(c(C5CC5)c32)CCNCC4)cc1 [Example 268] | 0.92 nM | 99% |  |  | ≥ 200% |
|  | Fc1ccc(F)c(CN2CCOc3cc4c(c(C5CC5)c32)CCNCC4)c1 [Example 283] | 1.7 nM | 90% |  |  | ≥ 200% |
|  | COCC1(CN2CCOc3cc4c(c(C5CC5)c32)CCNCC4)CC1 [Example 105] | 8 nM | 111% | 166 to 167 °C |  |  |
|  | CC(C)CN1CCCc2cc3c(c(Cl)c21)CCNCC3.O=C(O)/C=C/C(=O)O [Example 2, 11-chloro-1-isobutyl-2,3,4,6,7,8,9,10-octahydro-1H-azepino[4,5-g]quinoline monofumarate] | 0.64 nM | 99% | 159 to 163 °C |  |  |
|  | CC(=O)N1CCCc2cc3c(cc21)CCNCC3.O=C(O)/C=C/C(=O)O [Example 33] | 32.9 nM | 94% | 159 to 162 °C |  |  |
|  | O=C(O)/C=C/C(=O)O.c1ccc(N2CCOc3cc4c(cc32)CCNCC4)cc1 [Example 92] | 79 nM | 84% | 220 to 222 °C |  |  |
| 117% | CC(C)CN1CCOc2cc3c(cc21)CCNCC3 [Example 58] | 4 nM |  |  |  |  |
|  | COCCN1CCCc2cc3c(c(C4CC4)c21)CCNCC3 [Example 81] | 0.84 nM | 114% |  |  | ≥ 200% |
|  | COc1cccc(CN2CCOc3cc4c(c(C5CC5)c32)CCNCC4)c1 [Example 299] | 1 nM | 98% |  |  | ≥ 200% |
|  | Clc1c2c(cc3c1N(CC1CCCC1)CCC3)CCNCC2 [Example 45] |  | 107% | 151 to 153 °C | 3.9 nM |  |
|  | CCOC(=O)N1CCCc2cc3c(c(C)c21)CCNCC3.O=C(O)C(=O)O [Example 108] | 5.9 nM | 106% | 185 to 186 °C |  |  |
| 97% | c1c2c(c(C3CC3)c3c1OCCN3)CCNCC2 [Example 36] | 12 nM |  | 193 to 197 °C |  |  |
|  | COCCN1c2c(cc3c(c2C2CC2)CCNCC3)OC[C@@H]1C [Example 292] | 0.65 nM | 93% |  |  | ≥ 200% |
|  | COCCN1CCOc2cc3c(c(Br)c21)CCNCC3 [Example 135] | 2.9 nM | 112% |  |  | ≥ 200% |

| Emax (human 5-HT2C receptor; [3]) | SMILES | EC50 (human 5-HT2C receptor; [2]) | Emax (human 5-HT2C receptor; CHO) | melting point | EC50 (human 5-HT2C receptor) | response vs control in vivo at 3 mg/kg [1] |
| --- | --- | --- | --- | --- | --- | --- |
|  | CC1CNc2cc3c(cc2O1)CCNCC3 (stereo not drawn) [Example 50] |  | 98% | 193 to 194 °C | 68 nM |  |
|  | COCCN1CCOc2cc3c(c(-c4cccc(C)c4)c21)CCNCC3.O=C(O)/C=C/C(=O)O [Example 78] | 36 nM | 98% | 173 to 176 °C |  |  |
|  | CN1CCOc2cc3c(c(Br)c21)CCNCC3.O=C(O)/C=C/C(=O)O [Example 35] |  | 100% | 200 to 204 °C | 0.42 nM |  |
|  | CC(C)CN1CCCc2cc3c(cc21)CCNCC3 [Example 38] | 2.1 nM | 94% |  |  | ≥ 200% |
|  | N#Cc1cc(F)c(OCCN2CCOc3cc4c(c(C5CC5)c32)CCNCC4)c(F)c1 [Example 297] | 0.71 nM | 96% |  |  | ≥ 200% |
|  | CCc1c2c(cc3c1N(CCOC)CCO3)CCNCC2.O=C(O)/C=C/C(=O)O [Example 98] | 4.4 nM | 107% | 159 to 163 °C |  |  |
|  | Cl.FC(F)(F)CN1CCOc2cc3c(c(Br)c21)CCNCC3 |  |  | 214 to 215 °C |  |  |
|  | COC(C)(C)CN1CCOc2cc3c(c(C4CC4)c21)CCNCC3 [Example 230] |  |  | 155 to 156 °C |  |  |
|  | COCCN1CCOc2cc3c(c(C)c21)CCNCC3.O=C(O)/C=C/C(=O)O [Example 90] | 8.3 nM | 113% | 166 to 170 °C |  |  |
|  | O=C(O)CCC(=O)O.O=C(OCCc1cccc(Cl)c1)N1CCOc2cc3c(cc21)CCNCC3 |  |  | 160 to 162 °C |  |  |
|  | c1c2c(c(C3CC3)c3c1OCCN3CC1CCOCC1)CCNCC2 [Example 250] |  |  | 153 to 155 °C |  |  |
|  | COCCN1CCOc2cc3c(c(-c4ccccc4)c21)CCNCC3.O=C(O)/C=C/C(=O)O |  |  | 199 to 201 °C |  |  |
|  | O=C(O)CCC(=O)O.O=C1COc2cc3c(cc2N1Cc1ccccc1Cl)CCNCC3 |  |  | 119 to 127 °C |  |  |
|  | O=C(O)/C=C/C(=O)O.O=C(OCCc1ccccc1)N1CCOc2c1cc1c(c2-c2cccs2)CCNCC1 |  |  | 215 to 216 °C |  |  |
|  | COCCN1c2cc3c(cc2OC[C@H]1C)CCNCC3.O=C(O)/C=C/C(=O)O |  |  | 133 to 136 °C |  |  |
|  | Cc1c2c(cc3c1N(C[C@H](C)F)CCO3)CCNCC2.O=C(O)/C=C/C(=O)O |  |  | 165 to 168 °C |  |  |
|  | COCC(CN1CCOc2cc3c(c(C4CC4)c21)CCNCC3)Oc1ccc(F)cc1.O=C(O)/C=C/C(=O)O (stereo not drawn) |  |  | 138 to 140 °C |  |  |
|  | COc1cc(OCCN2CCOc3cc4c(c(C5CC5)c32)CCNCC4)c(F)cc1C#N.O=C(O)/C=C/C(=O)O |  |  | 125 to 128 °C |  |  |
